Assay results reported in patent US11051510B2, “Asymmetric formales and acetales as adjuvants for crop protection” (BASF SE, priority 2014, dated 2021).

Tested on: Puccinia recondita
Test: Greenhouse test on wheat infected with Puccinia recondita at full and reduced dose rate (Example 12)
Format: in vivo, Puccinia recondita on wheat (species "Kanzler")
Conditions: for Infected leaf area at 25% dose rate: 2.5 g/ha pesticide (epoxiconazole) and 5 g/ha adjuvant; for Infected leaf area at 100% dose rate: 10 g/ha pesticide (epoxiconazole) and 20 g/ha adjuvant
Description: The biological activity was assessed in a greenhouse on wheat (species “Kanzler”), which was infected with Puccinia recondita at two leafs stage and incubated for three days at high humidity. The plants were sprayed (spray volume 200 l/ha) with a composition comprising 50 ppm (10 g/ha) epoxiconazole and 100 ppm (20 g/ha) of the respective adjuvant samples from Example 1-9. In the comparative example no adjuvant was added. The plants were further cultivated for ten days at 20-24° C. and 60-90% relative humidity. Finally, the percentage of the infected leaf area was visually inspected. Each value was based on three replicates.
The biological activity was assessed in a greenhouse as described in Example 11 with a dose rate of 10 g/ha pesticide and 20 g/ha adjuvant (“100%” in Table 4) and a reduced dose rate of 2.5 g/ha pesticide and 5 g/ha adjuvant (“25%” in Table 4). In this test the adjuvants from Example 1 (formula A), Example 2 (formula B) and as comparative adjuvant butyl endcapped ethoxylated (5EO) n-dodecanol (formula C) were compared. All three compounds are butyl endcapped. Formula A and C have the same degree of ethoxylation of five ethylene oxide (EO) units. Formula B (only 3 EO) and C have a similar overall molecule weight. n-C12-18—[O—CH2—CH2]5—O—CH2—O—CH2—CH2—O—Bu (A) n-C12-18—[O—CH2—CH2]3—O—CH2—O—CH2—CH2—O—Bu (B) n-C12[O—CH2—CH2]5—Bu (C)

Substance	Infected leaf area at 25% dose rate [%]	Infected leaf area at 100% dose rate [%]
butyl endcapped ethoxylated (5EO) n-dodecanol [(C), reference compound]	38	8
n-C12-18—[O—CH2—CH2]3—O—CH2—O—CH2—CH2—O—Bu [(B)]	13	6
n-C12-18—[O—CH2—CH2]5—O—CH2—O—CH2—CH2—O—Bu [(A)]	23	7
